# Data as given in paper PMC5030144 (Nature chemical biology, 2016).
# “And” between values parts separate entries of the source, which are not always exact repeats. Equal entries are not always repeated.
# Tests used:
# RMS3 [1] = target: T1, RMS3 (Pisum sativum, UniProt A0A109QYD3); experiment: Intrinsic tryptophan fluorescence, apparent dissociation coefficient; type: binding; details: apparent Kd from intrinsic fluorescence, mean ± SE of two replicates
# T1 sequence (A0A109QYD3 1-267): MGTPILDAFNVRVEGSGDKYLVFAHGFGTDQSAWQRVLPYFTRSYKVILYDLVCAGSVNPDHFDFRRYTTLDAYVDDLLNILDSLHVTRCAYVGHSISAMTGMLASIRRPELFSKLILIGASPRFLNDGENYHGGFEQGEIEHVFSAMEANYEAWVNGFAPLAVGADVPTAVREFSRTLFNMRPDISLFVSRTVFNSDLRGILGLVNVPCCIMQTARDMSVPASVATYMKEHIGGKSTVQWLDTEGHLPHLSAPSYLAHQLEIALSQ
# RMS3 [2] = target: T1, RMS3; experiment: Differential scanning fluorimetry; type: binding; details: DSF
# RMS3 [3] = target: T1, RMS3; experiment: Competition test with; type: biochemical
Compound,Kd (RMS3 [1]),shift in RMS3 melting temperature (destabilization) (RMS3 [2]),mode of inhibition of (±)-GC242 hydrolysis (RMS3 [3]; RMS3),"Ki (RMS3 [3]; RMS3, competition test with (±)-GC242, mean ± SE of three replicates)",Kd (RMS3 [1]; Kd)
CC1=C(C)C(OC=C2C(=O)OC3c4ccccc4CC23)OC1=O (racemic) [(±)-3’-Me-GR24],30.9 ± 5.2 µM,–,–,–,–
O=C1C=CC(OC=C2C(=O)OC3c4ccccc4CC23)O1 (racemic) [(±)-4’-desmethyl-2’-epi-GR24],296 ± 27.9 µM,no shift,–,–,–
O=C1OC2c3ccccc3CC2/C1=C\O (racemic) [(±)-ABC],271 ± 29.8 µM,no shift,competitive inhibitor,28.8 ± 17.6 µM,–
"Cc1cc(=O)oc2c(F)c(O)c(F)cc12 [DiFMU, 6,8-difluoro-7-hydroxy-4-methylcoumarin]",–,small stabilization,–,–,20 µM and 19.9 µM
